Reference: patent US5208223A, “Phosphocholine derivative inhibitors of phospholipase A2” (American Cyanamid Company, priority 1992, dated 1993)
Values joined by “and” are separate entries in the source; they are usually repeats but may differ in a detail not shown here. Equal entries are not always repeated. Structures can show the parent of a compound that is named as a salt. Where two headings read alike, the source gives them in different places.

Columns and labels:
Type in all cases: biochemical
porcine pancreatic PLA2 [1] = molecular target: T1, porcine pancreatic PLA2 (Sus scrofa, UniProt P00592); experiment: PLA2 assay: in vitro porcine pancreatic phospholipase A2, preincubation of drug+enzyme, substrate 2 nM; conditions: preincubation, subs. con. 2; for inhibition at 25 µg/mL: dose 25 μ/ml; for inhibition at 50 µg/mL: dose 50 μ/ml
T1 construct: purchased Sigma
T1 sequence (P00592 23-146): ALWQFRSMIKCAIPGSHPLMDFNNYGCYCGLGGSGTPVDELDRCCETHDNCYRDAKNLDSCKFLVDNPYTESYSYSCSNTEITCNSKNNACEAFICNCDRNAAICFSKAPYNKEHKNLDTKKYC
Method: (§1) Phospholipase A2 activity was measured by a radiochemical assay in which labeled synthetic phosphatidylcholine substrate is converted by porcine pancreatic PLA2 to free radiolabeled arachidonate and lyso PC. Radiolabeled arachidonate is extracted from the reaction mixture and separated from unreacted substrate by column chromatography or TLC. Radioactivity (cpm) in samples is quantitated by liquid scintillation counting. Specific details are as follows:
(§2) Labeled substrate(1-stearyl-2-^3 H-arachidonylphosphatidylcholine; Amersham, sp. act. 84 (uCi/mmole, 0.025 to 0.2 uCi/assay tube and unlabeled substrates (Avanti), in sufficient quantity to give 20,000 cpm to 50,000 cpm and 10 μM to 1,000 μM final concentration/assay tube are dried under a stream of nitrogen. The PLA2 and mPLA2 assays utilized a […] substrate concentration. The mHPLA2 and HPLA2 assays (vida infra) utilized a 10 μM substrate concentration and the SmPLA2 assay utilized a substrate concentration ranging from 100 to 1000 μm. The substrate is then redissolved in 0.1M tris-HCl buffer, pH 9.0 containing 10 mM CaCl2 and 10 mM Na taurocholate detergent. The mixture is sonicated in a Kontes Sonifier to yield a homogeneous dispersion. The "mixed" micellar substrate is clear. An aliquot is reserved for a cpm count (total substrate). The total reaction volume is 500 μL; siliconized glassware or plasticware is used throughout. Enzyme (Sigma, sp. act.>690 U/mg protein and preferably 900 U/mg protein) is diluted 1:750 or 1:1000 in 0.1M tris-HCl buffer, pH 9.0 (without Ca^++ and detergent). Enzyme dilution depends on substrate concentration and required enzyme concentration.
(§3) The substrate in buffer is kept on ice until the reaction is started. The reaction is started by adding 10 μL of diluted enzyme solution to 490 μL of micellar substrate solution. Samples are incubated in a 37° C. water bath for 15 minutes with gentle mixing. The reaction is terminated by the addition of 100 μL of 1M fresh trichloroacetic acid (TCA) solution and chilling the tubes on ice for 30 minutes.
(§4) Samples (600 μL) are extracted with 3 ml CHCl3 /MeOH (2:1) for thin layer chromatography or in hexane/ether (9:1) for column chromatography. The phases are separated by gentle centrifugation at 700 rpm×5'. The organic phase is recovered.
(§5) Labeled arachidonate extracted with CHCl3 /MeOH is separated on silica gel G TLC plates (Analtech). Twenty μL of a 2 mg/ml internal standard solution of arachidonic acid (Sigma) is combined with 2-3 ml of the organic phase. The entire mixture is dried under nitrogen and redissolved in 50 μL of CHCl3 /MeOH (2:1). A 20 μL sample is counted in 10 ml of Beckman Redi-solv HP and spotted on silica gel G plates. The solvent system used to develop the plate is CHCl3 /MeOH/13.5N NH3 /H2 O (70:30:4:1). Plates are developed in a glass chamber for 1-11/2 hours, air dried, and the spots visualized in an iodine vapor chamber. Standards of phosphatidylcholine, lyso PC, and arachidonic acid (Sigma) are made as 2 mg/ml stocks in CHCl3 /MeOH (2:1) and spotted on plates. Spots corresponding to arachidonate and phospholipid are scraped and counted in 10 ml Beckman Redi-Solv HP scintillation fluid.
(§6) Samples are extracted with hexane/ether and the upper organic phase recovered. An aliquot is applied to a Silicar CC4 (Malincrodt) column. Columns are prepared using 1 ml of a 1:1 slurry of silicar CC4 in hexane/ether in a Pasteur pipet (approx. 2 cm height). Columns are rinsed with 500 μL of hexane/ether before adding the sample (300-600 μL) to the column. Columns are eluted with a total of 6 ml of hexane/ether. The 6 ml sample is counted in 10 ml of Beckman Redi-Solv HP scintillation fluid.
or the phospholipase A2 assay, compounds are prepared as 1 mg/ml stock solutions in MeOH and diluted appropriately in PBS.

porcine pancreatic PLA2 [2] = molecular target: T1, porcine pancreatic PLA2; experiment: MHPLA2 assay: in vitro porcine pancreatic phospholipase A2, mixed micelle design, [s]=10 μm; conditions: for % Inh.: subs. con. 10
Method: as §1, §2, §3, §4, §5, §6
(§7) or the phospholipase A2 assay, compounds are prepared as 1 mg/ml stock solutions in MeOH and diluted appropriately in PBS. […]

porcine pancreatic PLA2 [3] = molecular target: T1, porcine pancreatic PLA2; experiment: MPLA2 assay: in vitro porcine pancreatic phospholipase A2, mixed micelle design, substrate 2 nM; conditions: for inhibition at 10 µg/mL: dose 10 μ/ml; for inhibition at 20 µg/mL: dose 20 μ/ml
Method: as §1, §2, §3, §4, §5, §6, §7

[4] = dose 25 μ/ml, subs. con. 10, read-out: % Inh.
[5] = dose 25 μ/ml, subs. con. 2, read-out: % Inh.
[6] = dose 10 μ/ml, subs. con. 10, read-out: % Inh.
[7] = dose 25 μ/ml, subs. con. 10, read-out: % Inh. Avg.
[8] = dose 10 μ/ml, read-out: % Inh. Avg.
[9] = read-out: IC50 Avg. (converted)

CCCCCCCCCCCCCCCCOCC(COP(=O)([O-])OCC[N+](C)(C)C)CB(O)O (centres unmarked) [7-(Boronomethyl)-4-hydroxy-N,N,N-trimethyl-3,5,9-trioxa-4-phosphapentacosan-1-aminium, hydroxide, inner salt, 4-oxide]
inhibition at 10 µg/mL (porcine pancreatic PLA2 [1]; dose 10 μ/ml, read-out: % Inh.): 57%
inhibition at 20 µg/mL (porcine pancreatic PLA2 [1]; dose 20 μ/ml, read-out: % Inh.): 77%
IC50 (porcine pancreatic PLA2 [1]; read-out: IC50 (converted)): 10.7 µM
inhibition at 25 µg/mL (porcine pancreatic PLA2 [2]; [4]): 9%
inhibition at 25 µg/mL (porcine pancreatic PLA2 [3]; dose 25 μ/ml, subs. con. 2, read-out: % Inh. Avg.): 44%

CCCCCCCCCCCCCCCCCC(=O)NCC(CO)COCCCCCCCCCCCCCCCC (centres unmarked) [N-[3-(Hexadecyloxy)-2-hydroxymethyl)propyl]octadecanamide]
inhibition at 20 µg/mL (porcine pancreatic PLA2 [1]; dose 20 μ/ml, read-out: % Inh.): 24%
inhibition at 25 µg/mL (porcine pancreatic PLA2 [1]; read-out: % Inh.): 93%
inhibition at 25 µg/mL (porcine pancreatic PLA2 [2]; [4]): 35%
inhibition at 25 µg/mL (porcine pancreatic PLA2 [3]; [5]): 93%

CCCCCCCCCCCCCCCCOCC(COP(=O)([O-])OCC[N+](C)(C)C)OC(=O)CCl (centres unmarked) [7-[(Chloroacetyl)oxy]-4-hydroxy-N,N,N-trimethyl-3,5,9-trioxa-4-phosphapentacosan-1-aminium, hydroxide, inner salt, 4-oxide]
inhibition at 10 µg/mL (porcine pancreatic PLA2 [2]; [6]): 27%
inhibition at 25 µg/mL (porcine pancreatic PLA2 [2]; [7]): 3%
inhibition at 10 µg/mL (porcine pancreatic PLA2 [3]; subs. con. 2, read-out: % Inh.): 46%
inhibition at 20 µg/mL (porcine pancreatic PLA2 [3]; subs. con. 2, read-out: % Inh.): 72%
IC50 (porcine pancreatic PLA2 [3]; subs. con. 2): 17.4 µM

CCCCCCCCCCCCCCCCOCC(COP(=O)([O-])OCC[N+](C)(C)C)CC1CO1 (centres unmarked) [4-Hydroxy-N,N,N-trimethyl-7-(oxiranylmethyl)-3,5,9-trioxa-4-phosphapentacosan-1-aminium, hydroxide, inner salt, 4-oxide]
inhibition at 10 µg/mL (porcine pancreatic PLA2 [1]; dose 10 μ/ml, read-out: % Inh.): 71%
inhibition at 10 µg/mL (porcine pancreatic PLA2 [1]; [8]): 74%
inhibition at 20 µg/mL (porcine pancreatic PLA2 [1]; dose 20 μ/ml, read-out: % Inh.): 88%
IC50 (porcine pancreatic PLA2 [1]; read-out: IC50 (converted)): 4.6 µM
inhibition at 25 µg/mL (porcine pancreatic PLA2 [3]; [5]): 85%

CCCCCCCCCCCCCCCCOCC(O)(COP(=O)([O-])OCC[N+](C)(C)C)CC(N)CC (centres unmarked) [7-(2-Aminobutyl)-4,7-dihydroxy-N,N,N-trimethyl-3,5,9-trioxa-4-phosphapentacosan-1-aminium, hydroxide, inner salt, 4-oxide]
inhibition at 10 µg/mL (porcine pancreatic PLA2 [1]; dose 10 μ/ml, read-out: % Inh.): 89%
inhibition at 20 µg/mL (porcine pancreatic PLA2 [1]; dose 20 μ/ml, read-out: % Inh.): 94%
IC50 (porcine pancreatic PLA2 [1]; read-out: IC50 (converted)): 2.35 µM
inhibition at 10 µg/mL (porcine pancreatic PLA2 [3]; subs. con. 2, read-out: % Inh.): 25%
inhibition at 20 µg/mL (porcine pancreatic PLA2 [3]; subs. con. 2, read-out: % Inh.): 61%
IC50 (porcine pancreatic PLA2 [3]; subs. con. 2): 34.7 µM

CCCCCCCCCCCCCCCCOCC(COP(=O)([O-])OCC[N+](C)(C)C)OP(=O)(OC)OCCCCCCCCCCCCCCCC (centres unmarked) [3,5,8,10-Tetraoxa-4,9-diphosphahexacosan-1-aminium, 7-[(hexadecyloxy)methyl]-4-hydroxy-9-methoxy-N,N,N-trimethyl-, hydroxide, inner salt, 4,9-dioxide]
IC50 (porcine pancreatic PLA2 [1]; read-out: IC50 (converted)): 4 µM and 3.5 µM
IC50 (porcine pancreatic PLA2 [1]; [9]): 3.75 µM
inhibition at 25 µg/mL (porcine pancreatic PLA2 [2]; [7]): 62%

CCCCCCCCCCCCCCCCOCC(COP(=O)([O-])OCC[N+](C)(C)C)OCC(=O)O (centres unmarked) [2,5,7-Trioxa-6-phosphanonan-9-aminium, 1-carboxy-3-[(hexadecyloxy)methyl]-6-hydroxy-N,N,N-trimethyl-, hydroxide, inner salt, 6-oxide]
inhibition at 20 µg/mL (porcine pancreatic PLA2 [1]; dose 20 μ/ml, read-out: % Inh.): 44%
inhibition at 10 µg/mL (porcine pancreatic PLA2 [2]; [6]): 6%
inhibition at 25 µg/mL (porcine pancreatic PLA2 [2]; [7]): 30%

CCCCCCCCCCCCCCCCOC[C@@H](COP(=O)([O-])OCC[N+](C)(C)C)OP(=O)(O)OCCCCCCCCCCCCCCCC [3,5,8,10-Tetraoxa-4,9-diphosphahexacosan-1-aminium, 7-[(hexadecyloxy)methyl]-4,9-dihydroxy-N,N,N-trimethyl-, hydroxide, 4-(inner salt), 4,9-dioxide, (7S)]
inhibition at 10 µg/mL (porcine pancreatic PLA2 [1]; [8]): 17%
inhibition at 20 µg/mL (porcine pancreatic PLA2 [1]; dose 20 μ/ml, read-out: % Inh. Avg.): 16%
inhibition at 25 µg/mL (porcine pancreatic PLA2 [1]; read-out: % Inh.): 8%
% Inh. (porcine pancreatic PLA2 [2]; dose 10 μ/ml): STIM
% Inh. (porcine pancreatic PLA2 [2]; dose 25 μ/ml): STIM

CCCCCCCCCCCCCCCCOCC(COP(=O)([O-])OCC[N+](C)(C)C)OP(=O)(OC)OCCCCC (single isomer, unassigned) [3,5,8,10-Tetraoxa-4,9-diphosphapentadecan-1-aminium, 7-[(hex] [3,5,8,10-Tetraoxa-4,9-diphosphapentadecan-1-aminium, 7-[(hexadecyloxy)methyl]-4-hydroxy-9-methoxy-N,N,N-trimethyl-, hydroxide, 4-(inner salt),4,9-dioxide, more polar isomer]
% Inh. (porcine pancreatic PLA2 [1]; dose 10 μ/ml): 82%
% Inh. (porcine pancreatic PLA2 [1]; dose 20 μ/ml): 89%
% Inh. (porcine pancreatic PLA2 [3]; dose 25 μ/ml, subs. con. 2): STIM

CCCCCCCCCCCCCCCCOCC(COP(=O)([O-])OCC[N+](C)(C)C)OP(=O)(OC)OCCCCCCCCCCCCCCCC (centres unmarked) [3,5,8,10-Tetraoxa-4,9-diphosphahexacosan-1-aminium, 7-[(hexadecyloxy)methyl]-4-hydroxy-9-methoxy-N,N,N-trimethyl-hydroxide, inner salt, 4,9-dioxide]
inhibition at 10 µg/mL (porcine pancreatic PLA2 [1]; dose 10 μ/ml, read-out: % Inh.): 61%
inhibition at 20 µg/mL (porcine pancreatic PLA2 [1]; dose 20 μ/ml, read-out: % Inh.): 65%
inhibition at 25 µg/mL (porcine pancreatic PLA2 [1]; read-out: % Inh.): 71%
inhibition at 25 µg/mL (porcine pancreatic PLA2 [1]; read-out: % Inh. Avg.): 77%
inhibition at 50 µg/mL (porcine pancreatic PLA2 [1]; read-out: % Inh.): 73% and 88%
inhibition at 50 µg/mL (porcine pancreatic PLA2 [1]; read-out: % Inh. Avg.): 80%
IC50 (porcine pancreatic PLA2 [1]; read-out: IC50 (converted)): 7.5 µM and 5.62 µM and 7.25 µM
IC50 (porcine pancreatic PLA2 [1]; [9]): 6.75 µM
inhibition at 10 µg/mL (porcine pancreatic PLA2 [2]; [6]): 0%

CCCCCCCCCCCCCCCCOCC(COP(=O)([O-])OCC[N+](C)(C)C)OP(=O)(OC)OCCCCC (single isomer, unassigned) [3,5,8,10-Tetraoxa-4,9-diphosphapentadecan-1-aminium, 7-[(hexadecyloxy)methyl]-4-hydroxy-9-methoxy-N,N,N-trimethyl-, hydroxide, 4-(inner salt),4,9-dioxide, more polar isomer]
IC50 (porcine pancreatic PLA2 [1]; read-out: IC50 (converted)): 3.87 µM
inhibition at 10 µg/mL (porcine pancreatic PLA2 [2]; [6]): 0%

CCCCCCCCCCCCCCCCOCC(COP(=O)([O-])OCC[N+](C)(C)C)OC(=O)CBr (centres unmarked) [3,5,9-Trioxa-4-phosphapentacosan-1-aminium, 7-[(bromoacetyl)oxy]-4-hydroxy-N,N,N-trimethyl-, hydroxide, inner salt, 4-oxide]
inhibition at 10 µg/mL (porcine pancreatic PLA2 [2]; [6]): 35%
inhibition at 10 µg/mL (porcine pancreatic PLA2 [2]; dose 10 μ/ml, subs. con. 10, read-out: % Inh. Avg.): 32%
inhibition at 25 µg/mL (porcine pancreatic PLA2 [2]; [4]): 78%
inhibition at 25 µg/mL (porcine pancreatic PLA2 [2]; [7]): 50%
IC50 (porcine pancreatic PLA2 [2]; subs. con. 10, read-out: IC50 Avg. (converted)): 83 µM
inhibition at 10 µg/mL (porcine pancreatic PLA2 [3]; subs. con. 2, read-out: % Inh.): 52%
inhibition at 20 µg/mL (porcine pancreatic PLA2 [3]; subs. con. 2, read-out: % Inh.): 85%
IC50 (porcine pancreatic PLA2 [3]; subs. con. 2): 8.13 µM

CCCCCCCCCCCCCCCCOC[C@@H](COP(=O)([O-])OCC[N+](C)(C)C)OP(=O)(OC)OCCCCCCCCCCCCCCCC (single isomer, unassigned) [3,5,8,10-Tetraoxa-4,9-diphosphahexacosan-1-aminium, 7-[(hexa]
% Inh. (porcine pancreatic PLA2 [2]; dose 25 μ/ml): 0%
